Measured values taken from the supplement of paper PMC10307832.

What was measured:
Assay in all cases: relative viability (nuclei count vs DMSO), 5 days (fraction); higher = more cells survive
[1] = compound: C1CN(CCC1C(C2=CC3=C(C=C2)OCO3)(C4=CC5=C(C=C4)OCO5)O)C(=O)OC6=CC=C(C=C6)[N+](=O)[O-] [JZL-184] + COc1cccc2cc(-c3nc([C@H]4CC[C@H](C(=O)O)CC4)n4ncnc(N)c34)[nH]c12 [OSI-027] (partner 0.5 µM)
Procedure, shortened: (§1)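 Values are medians from duplicate plates. Each reflects relative viability, defined as the nuclei count of treated wells over that of vehicle wells. Lung cancer cell lines in 1536-well plates were pin-tool dosed one day after seeding with one drug alone or with a fixed anchor-drug dose plus five library-drug doses (not always all listed) in √10 steps, then fixed, stained and imaged at 4× after 5 days.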

[2] = compound: C1CN(CCC1C(C2=CC3=C(C=C2)OCO3)(C4=CC5=C(C=C4)OCO5)O)C(=O)OC6=CC=C(C=C6)[N+](=O)[O-] [JZL-184] + CC1(C)CCC(c2ccc(Cl)cc2)=C(CN2CCN(c3ccc(C(=O)NS(=O)(=O)c4ccc(N[C@H](CCN5CCOCC5)CSc5ccccc5)c(S(=O)(=O)C(F)(F)F)c4)cc3)CC2)C1 [Navitoclax] (partner 0.5 µM)
Procedure, shortened: as §1

[3] = compound: C1CN(CCC1C(C2=CC3=C(C=C2)OCO3)(C4=CC5=C(C=C4)OCO5)O)C(=O)OC6=CC=C(C=C6)[N+](=O)[O-] [JZL-184] + CC(C)C[C@H](NC(=O)[C@H](Cc1ccccc1)NC(=O)c1cnccn1)B(O)O [Bortezomib] (partner 0.002 µM)
Procedure, shortened: as §1

[4] = compound: C1CN(CCC1C(C2=CC3=C(C=C2)OCO3)(C4=CC5=C(C=C4)OCO5)O)C(=O)OC6=CC=C(C=C6)[N+](=O)[O-] [JZL-184] + CS(=O)(=O)N1CCN(Cc2cc3nc(-c4cccc5[nH]ncc45)nc(N4CCOCC4)c3s2)CC1 [Pictilisib] (partner 1 µM)
Procedure, shortened: as §1

[5] = compound: C1CN(CCC1C(C2=CC3=C(C=C2)OCO3)(C4=CC5=C(C=C4)OCO5)O)C(=O)OC6=CC=C(C=C6)[N+](=O)[O-] [JZL-184] + CS(=O)(=O)CCNCc1ccc(-c2ccc3ncnc(Nc4ccc(OCc5cccc(F)c5)c(Cl)c4)c3c2)o1 [Lapatinib] (partner 2 µM)
Procedure, shortened: as §1

Row | Cell Line | relative viability ([1]; first compound 0.04 µM) | relative viability ([1]; first compound 0.4 µM) | relative viability ([1]; first compound 1.265 µM) | relative viability ([1]; first compound 4 µM) | relative viability ([2]; first compound 0.04 µM) | relative viability ([2]; first compound 0.4 µM) | relative viability ([2]; first compound 1.265 µM) | relative viability ([2]; first compound 4 µM) | relative viability ([3]; first compound 0.04 µM) | relative viability ([3]; first compound 0.4 µM) | relative viability ([3]; first compound 1.265 µM) | relative viability ([3]; first compound 4 µM) | relative viability ([4]; first compound 0.04 µM) | relative viability ([4]; first compound 0.4 µM) | relative viability ([4]; first compound 1.265 µM) | relative viability ([4]; first compound 4 µM) | relative viability ([5]; first compound 0.04 µM) | relative viability ([5]; first compound 0.4 µM) | relative viability ([5]; first compound 1.265 µM) | relative viability ([5]; first compound 4 µM)
1 | NCI-H647 | 0.625 | 0.698 | 0.75 | 0.51 | 1.24 | 1.12 | 1.12 | 1.07 | 1.32 | 0.922 | 1.14 | 0.974 | 0.495 | 0.294 | 0.566 | 0.468 | 1.35 | 0.969 | 1.28 | 1.14
2 | NCI-H2009 | 0.764 | 0.574 | 0.694 | 0.653 | 1.18 | 0.951 | 1.17 | 1.17 | 1.2 | 0.946 | 1.02 | 0.938 | 0.985 | 0.672 | 0.914 | 0.844 | 1.15 | 0.805 | 0.928 | 1.01
3 | EPLC-272H | 0.311 | 0.259 | 0.35 | 0.351 | 1.12 | 1.11 | 1.2 | 1.25 | 1.03 | 0.735 | 1.06 | 0.839 | 0.317 | 0.271 | 0.38 | 0.314 | 1.07 | 1.02 | 0.972 | 0.944
4 | NCI-H520 | 0.233 | 0.229 | 0.257 | 0.213 | 1.19 | 1.13 | 1.15 | 1.04 | 0.648 | 0.479 | 0.582 | 0.531 | 0.351 | 0.221 | 0.311 | 0.245 | 0.79 | 0.76 | 0.856 | 0.631
5 | NCI-H2405 | 0.608 | 0.608 | 0.651 | 0.615 | 0.97 | 0.847 | 1.03 | 0.884 | 1.05 | 0.943 | 1.06 | 0.769 | 0.531 | 0.444 | 0.493 | 0.486 | 1.17 | 1.04 | 1.21 | 0.96
6 | NCI-H2085 | 0.444 | 0.592 | 0.795 | 0.649 | 1.1 | 1.18 | 1.13 | 1.08 | 0.914 | 1.06 | 1.04 | 0.91 | 0.459 | 0.401 | 0.467 | 0.549 |  | 0.657 | 0.764 | 0.753
7 | NCI-H322M | 0.555 | 0.488 | 0.55 | 0.52 | 1.18 | 1.26 | 1.32 | 1.31 | 1.15 | 1.16 | 1.27 | 1.27 | 0.494 | 0.472 | 0.554 | 0.495 | 0.654 | 0.599 | 0.562 | 0.578
